The values below are quoted from earlier work in patent publication US7572882B2 (priority 2000, dated 2009).

Data set [1] has as its system T helper lymphocytes. Particulars: regardless of HLA type.
Data set [2] relates to HLA-DR alleles.

As for aKXVAAWTLKAAa, the “stimulation of the response of T helper lymphocytes” value in data set [1] was “stimulate the response of T helper lymphocytes from most individuals”. Further, the “binding to HLA-DR alleles” value in data set [2] is listed as “bind to most HLA-DR alleles”.
